The values below come from patent publication US10351577B2, “Ether analogues of galiellalactone” (Glactone Pharma Development AB, priority 2015, dated 2019).

In series [1] the test system is DU145. Briefly: WST-1 cell proliferation assay on DU145. It counts as cell-based. The note with it: for activity at 10 µM: Homo sapiens, DU-145, 72 h, percent of untreated control cells, read-out: Remaining cell proliferation (%) DU145; for Difference in cell proliferation @ 10 μM (%) (Selectivity) Δ LNCaP − DU145: LNCaP minus DU145. On the procedure:
(§1) The functional activity of the example compounds in comparison to galiellalactone was evaluated using a WST-1 proliferation assay (J. Biol. Chem. 2014, 289:15969-15978) on DU145, LNCaP or IL-6 stimulated LNCaP.
(§2) The cells were cultured in 96-well plates (2000 cells/well in 200 μl of medium) and allowed to set for 24 h. The cells were treated with 10 μM of an example compound or galiellalactone for 72 h. Samples were made in triplicate. 20 μl WST-1 solution (Roche Applied Science) was added per well and incubated at 37° C. for 4 h. The absorbance of each well was measured using a scanning multi-well spectrophotometer, ELISA reader at a wavelength of 450 nm and reference wavelength of 690 nm. The results presented in Tables 2 and 3 below are presented as percent of untreated control cells.
A general note: Tetrazolium dyes change colour on reduction, which living cells bring about.

The subject of another series is LNCaP. In words: WST-1 cell proliferation assay on LNCaP. It counts as cell-based. The note with it: Homo sapiens, 72 h, percent of untreated control cells, read-out: Remaining cell proliferation (%) LNCaP. On the procedure: as §1, §2
Series [2] has as its system LNCaP-IL6. Briefly: WST-1 cell proliferation assay on IL-6 stimulated LNCaP. It counts as cell-based. The conditions noted are these: for activity at 10 µM: Homo sapiens, LNCaP, 72 h, percent of untreated control cells, read-out: Remaining cell proliferation (%) LNCaP-IL6; for Difference in cell proliferation @ 10 μM (%) (Selectivity) Δ LNCaP − LNCaPIL6: LNCaP minus LNCaP-IL6. On the procedure: as §1, §2

In a further series the test system is STAT1. In words: STAT1 luciferase reporter gene assay in HeLa cells stimulated with IFNg. It is filed as cell-based. The conditions noted are these: Homo sapiens, M-HeLa, IFNg overnight. On the procedure:
In order to further asses the properties of the ether analogues of galiellalactone, the STAT1 activity was determined for some of the novel analogues.
Background: In a reporter assay the amount or activity of a reporter protein is the signal.

Series [3] has as its system DU145. In words: WST-1 cell proliferation assay on DU145. It is filed as cell-based. The conditions noted are these: for IC50: Homo sapiens, DU-145, dose response study, DU145.
For series [4], the system named is LNCaP-IL6. In words: WST-1 cell proliferation assay on IL-6 stimulated LNCaP. It counts as cell-based. The conditions noted are these: Homo sapiens, dose response study.
A short description of series [5]: Comparative pharmacokinetic study, single oral dose, plasma by LC-MS/MS. It is filed as in vivo. The note with it: mouse, CD1 mice, single oral gavage 10 mg/kg. On the procedure: A pharmacokinetic study was performed in CD1 mice to establish plasma exposure following administration of single oral doses of galiellalactone and example 20. Sample analysis was by LC-MS/MS.
Dose solutions were prepared at a drug concentration of 0.5 mg/mL in 5% DMSO in 50 mM citrate buffer (citric acid/sodium citrate pH 4.0) and administered as a 20 mL/kg oral gavage (10 mg/kg).
AUC denotes the plasma exposure of the compound measured with time. More specifically, AUC 0-t is the area under the plasma drug concentration/time curve from 0 minutes to last quantifiable data point. AUC 0-∞ is the area under the plasma drug concentration/time curve from 0 minutes extrapolated to infinity.

A further series has as its system IL-6/STAT3 signaling. The conditions noted are these: cited from earlier work.

In the case of `Cc1ccc(COC23C4=CC(C)CC2CCC3OC4=O)cn1` (stereo in doubt) [Example 1, (4R,5aS,7aS,7bR)-5,5a,6,7,7a,7b-hexahydro-7b-[(6-methyl-3-pyridinyl)methoxy]-4-methyl-indeno[1,7-bc]furan-2(4H)-one], in the series with DU145 [1], the activity at 10 µM is 12.9% and the “Difference in cell proliferation @ 10 μM (%) (Selectivity) Δ LNCaP − DU145” value (“Difference … (%) (Selectivity) Δ LNCaP − DU145” below) was found to be 50.3%. Moreover, the activity at 10 µM with LNCaP worked out at 63.2%. Besides, in the series with LNCaP-IL6 [2], the activity at 10 µM worked out at 8.6% and the “Difference in cell proliferation @ 10 μM (%) (Selectivity) Δ LNCaP − LNCaPIL6” value was 54.6%. In addition, the inhibition (in general, the drop in the measured response relative to a control, in per cent) at 10 µM in the series on STAT1 was 14%.

Turning to `CC1C=C2C(=O)OC3CCC(C1)C23OCc1ccc(Oc2ccccc2)nc1` (stereo in doubt) [Example 2, (4R,5aS,7aS,7bR)-5,5a,6,7,7a,7b-hexahydro-7b-[(6-phenoxy-3-pyridinyl)methoxy]-4-methyl-indeno[1,7-bc]furan-2(4H)-one], in the series on DU145 [1], the activity at 10 µM came out at 36.1% and the “Difference … (%) (Selectivity) Δ LNCaP − DU145” value was found to be 49.9%. Further, the activity at 10 µM in the series on LNCaP was 86%. Besides, in the series with LNCaP-IL6 [2], the activity at 10 µM was 18% and the “Difference in cell proliferation @ 10 μM (%) (Selectivity) Δ LNCaP − LNCaPIL6” value turned out to be 68%. For the same compound, the inhibition at 10 µM with STAT1 came to 1%.

In the case of `CC1C=C2C(=O)OC3CCC(C1)C23OCCc1cccnc1` (stereo in doubt) [Example 3, (4R,5aS,7aS,7bR)-5,5a,6,7,7a,7b-hexahydro-7b-[2-(3-pyridinyl)-ethoxy]-4-methyl-indeno[1,7-bc]furan-2(4H)-one], in the series with DU145 [1], the activity at 10 µM was found to be 18.7% and the “Difference … (%) (Selectivity) Δ LNCaP − DU145” value was 49.9%. For the same compound, in the series with LNCaP, the activity at 10 µM was found to be 68.6%. Besides, in the series with LNCaP-IL6 [2], the activity at 10 µM came out at 8% and the “Difference in cell proliferation @ 10 μM (%) (Selectivity) Δ LNCaP − LNCaPIL6” value is 60.6%. In the series with STAT1, this compound registered an inhibition at 10 µM of 38%.

Take `Cc1cnc(COC23C4=CC(C)CC2CCC3OC4=O)cn1` (stereo in doubt) [Example 4, (4R,5aS,7aS,7bR)-5,5a,6,7,7a,7b-hexahydro-7b-[(5-methyl-2-pyrazinyl)methoxy]-4-methyl-indeno[1,7-bc]furan-2(4H)-one]: in the series on DU145 [1], the activity at 10 µM worked out at 11.4% and the “Difference … (%) (Selectivity) Δ LNCaP − DU145” value is 44.1%. Besides, the activity at 10 µM in the series with LNCaP was determined as 55.5%. Further, in the series with LNCaP-IL6 [2], the activity at 10 µM turned out to be 10.7% and the “Difference in cell proliferation @ 10 μM (%) (Selectivity) Δ LNCaP − LNCaPIL6” value turned out to be 44.8%. Further, testing at 10 µM with STAT1 gave an inhibition of 12%.

Turning to `COc1ccnc(COC23C4=CC(C)CC2CCC3OC4=O)c1` (stereo in doubt) [Example 5, (4R,5aS,7aS,7bR)-5,5a,6,7,7a,7b-hexahydro-7b-[(4-methoxy-2-pyridinyl)methoxy]-4-methyl-indeno[1,7-bc]furan-2(4H)-one], in the series on DU145 [1], the activity at 10 µM came out at 19% and the “Difference … (%) (Selectivity) Δ LNCaP − DU145” value is 67%. In addition, the activity at 10 µM in the series on LNCaP came to 86%. Moreover, in the series with LNCaP-IL6 [2], the activity at 10 µM worked out at 15% and the “Difference in cell proliferation @ 10 μM (%) (Selectivity) Δ LNCaP − LNCaPIL6” value was determined as 71%. This compound displayed an inhibition at 10 µM with STAT1 of 16%.

Turning to `COC(=O)c1cccc(COC23C4=CC(C)CC2CCC3OC4=O)n1` (stereo in doubt) [Example 6, (4R,5aS,7aS,7bR)-5,5a,6,7,7a,7b-hexahydro-7b-[(6-methoxycarbonyl-2-pyridinyl)methoxy]-4-methyl-indeno[1,7-bc]furan-2(4H)-one], the activity at 10 µM in the series with DU145 [1] is 16.6%; in the series on LNCaP it was 65.6%; in the series with LNCaP-IL6 [2] it was 15.9%. Also, the “Difference … (%) (Selectivity) Δ LNCaP − DU145” value in the series with DU145 [1] was found to be 49%. The “Difference in cell proliferation @ 10 μM (%) (Selectivity) Δ LNCaP − LNCaPIL6” value in the series with LNCaP-IL6 [2] turned out to be 49.7%.

For the compound `COc1ncccc1COC12C3=CC(C)CC1CCC2OC3=O` (stereo in doubt) [Example 7, (4R,5aS,7aS,7bR)-5,5a,6,7,7a,7b-hexahydro-7b-[(2-methoxy-3-pyridinyl)methoxy]-4-methyl-indeno[1,7-bc]furan-2(4H)-one], the activity at 10 µM in the series on DU145 [1] came to 16.7%; in the series on LNCaP, 59.3%; with LNCaP-IL6 [2], 7%. For the same compound, in the series on DU145 [1], the “Difference … (%) (Selectivity) Δ LNCaP − DU145” value is reported as 42.6%. For the same compound, in the series on LNCaP-IL6 [2], the “Difference in cell proliferation @ 10 μM (%) (Selectivity) Δ LNCaP − LNCaPIL6” value is given as 52.3%.

On to `Cc1ncccc1COC12C3=CC(C)CC1CCC2OC3=O` (stereo in doubt) [Example 8, (4R,5aS,7aS,7bR)-5,5a,6,7,7a,7b-hexahydro-7b-[(2-methyl-3-pyridinyl)methoxy]-4-methyl-indeno[1,7-bc]furan-2(4H)-one], for which, in the series on DU145 [1], the activity at 10 µM came out at 10% and the “Difference … (%) (Selectivity) Δ LNCaP − DU145” value was 44.5%. Also, the activity at 10 µM in the series on LNCaP came out at 54.5%. In the series on LNCaP-IL6 [2], the activity at 10 µM came out at 3% and the “Difference in cell proliferation @ 10 μM (%) (Selectivity) Δ LNCaP − LNCaPIL6” value amounted to 51.5%.

Turning to `Cc1ccc(COC23C4=CC(C)(F)CC2CCC3OC4=O)cn1` (stereo in doubt) [Example 26, (4R,5aS,7aS,7bR)-5,5a,6,7,7a,7b-hexahydro-7b-[(6-methyl-3-pyridinyl)methoxy]-4-fluoro-4-methyl-indeno[1,7-bc]furan-2(4H)-one], the “Selectivity at IC90 against DU145 and LNCaP-IL6 cell proliferation over LNCaP proliferation” value in the series on DU145 [3] (FIG. 1B dose response curves) is on record as “very good selectivity”. The figures for the IC50 in the series with DU145 [3] and with LNCaP-IL6 [4] were 1530 nM and 1060 nM, respectively.

As to `C[C@@H]1C=C2C(=O)O[C@@H]3CCC(C1)[C@]23OCc1ccc(NC(=O)C(C)(C)C)nc1` (stereo partly drawn) [Example 9, (4R,5aS,7aS,7bR)-5,5a,6,7,7a,7b-hexahydro-7b-[(6-[(2,2-dimethyl-1-oxopropyl)amino]-3-pyridinyl]methoxy]-4-methyl-indeno[1,7-b]c furan-2(4H)-one], the activity at 10 µM in the series with DU145 [1] stood at 9.7%; in the series with LNCaP, 67.6%; in the series on LNCaP-IL6 [2], 2.8%. Further, the “Difference … (%) (Selectivity) Δ LNCaP − DU145” value with DU145 [1] was 57.9%. The “Difference in cell proliferation @ 10 μM (%) (Selectivity) Δ LNCaP − LNCaPIL6” value in the series on LNCaP-IL6 [2] was determined as 64.8%.

Consider `C[C@@H]1C=C2C(=O)O[C@@H]3CCC(C1)[C@]23OCc1ccc(N2CCOCC2)nc1` (stereo partly drawn) [Example 15, (4R,5aS,7aS,7bR)-5,5a,6,7,7a,7b-hexahydro-7b-[(6-(N-morpholino)-3-pyridinyl)methoxy]-4-methyl-indeno[1,7-bc]furan-2(4H)-one], for which, in the series on DU145 [1], the activity at 10 µM was 9.6% and the “Difference … (%) (Selectivity) Δ LNCaP − DU145” value turned out to be 66.6%. Moreover, the activity at 10 µM in the series with LNCaP amounted to 76.1%. In the series with LNCaP-IL6 [2], the activity at 10 µM is 6.5% and the “Difference in cell proliferation @ 10 μM (%) (Selectivity) Δ LNCaP − LNCaPIL6” value worked out at 69.6%. In the series with STAT1, this compound returned an inhibition at 10 µM of 53%.

Consider `C[C@@H]1C=C2C(=O)O[C@@H]3CC[C@H](C1)[C@]23O` [Galiellalactone, (−)-Galiellalactone], for which the area under the curve AUC(0-t) (as a rule, the area under the concentration-time curve up to a stated or last time point) in series [5] (0 min to last quantifiable data point) turned out to be 82 ng·h/mL. The area under the curve AUC(0-inf) (as a rule, the area under the concentration-time curve extrapolated to infinity) in series [5] (extrapolated to infinity) was 87 ng·h/mL. Also, the half-life – broadly, how long it takes for the measured level to halve – in series [5] (read-out: Apparent half-life (converted)) was 72 min. The values for the activity at 10 µM in the series on DU145 [1], in the series with LNCaP and in the series on LNCaP-IL6 [2] were 10.8%, 43.6% and 4.7%, respectively. The “Difference … (%) (Selectivity) Δ LNCaP − DU145” value in the series with DU145 [1] was found to be 32.8%. In addition, the “Difference in cell proliferation @ 10 μM (%) (Selectivity) Δ LNCaP − LNCaPIL6” value in the series on LNCaP-IL6 [2] came to 38.9%. In the series on STAT1, this compound registered an inhibition at 10 µM of 62%. The results for the IC50 with DU145 [3] and in the series on LNCaP-IL6 [4] were 2520 nM and 1160 nM, respectively. Also, the “Inhibition of IL-6/STAT3 signaling” value in the series on IL-6/STAT3 signaling is “submicromolar”.
